In patent publication US9707203B1, “Methods of killing bacteria and preventing or treating bacterial infection with oxidation products of safranal and methods of synthesizing safranal epoxides” (King Abdulaziz University, priority 2016, dated 2017):

Tested on: methicillin resistant Staphylococcus aureus (MRSA)
Experiment: Agar well diffusion method, antibacterial activity on Mueller Hinton media
Type: cell-based
Details: for Inhibition zone diameter: bacterial lawn of Staphylococcus aureus grown on Mueller Hinton media, agar well diffusion
Method: The antibacterial activities of safranal, a mixture of compound 2 and compound 3 obtained by the thermal epoxidation of safranal according to scheme 1, and a mixture of compound 2 and compound 3 obtained by the photochemical epoxidation of safranal according to scheme 2 against methicillin resistant Staphylococcus aureus (MRSA) were determined by the agar well diffusion method described by Collins, C. H., P. M. Lyne, J. M. Grange, Microbial Methods., 6th Edition, Butterworhs Co. Ltd, London; 1989. p. 410, incorporated herein by reference in its entirety.
Table 1: Antibacterial Activity (Inhibition Zone Diameter) of the Mixture of Compound 2 and Compound 3 Obtained by the Thermal Epoxidation of Safranal or by the Photochemical Epoxidation of Safranal, and Safranal Against Staphylococcus aureus Grown on Mueller Hinton Media Using Agar Well Diffusion Method

## CC1=C(C=O)C(C)(C)CC=C1 [Safranal, 2,6,6-trimethylcyclohexa-1,3-diene-1-carbaldehyde]
Staphylococcus aureus on Mueller Hinton media in a petri dish, agar well containing test substance, FIG. 3B-3D
  Inhibition zone in the bacterial lawn (presence/absence): presence of an inhibition zone
  Inhibition zone diameter: 27.00 mm
Listed as safranal
  Inhibition zone diameter: 27 mm
